Results on one compound are retold here after patent publication US12351574B2, “Selective ligands for modulation of GIRK channels” (Northeastern University, priority 2018, dated 2025).

Data set [1] can be described thus: novel object recognition (NOR) test. The data set is classed as in vivo, rat. The conditions noted are these: 10 and 30 mg/kg. As for the experimental part: Novel object recognition test (NORT): Novel object recognition test was performed in an open-field box measuring 100×100×20 cm as previously described. Prior to testing, the rats were allowed to explore the box for 5 min per day for 3 consecutive days with no objects present. Testing consisted of two 2 min trials. During a familiarization trial, two identical objects (plastic cylinders 6 cm in diameter and 12 cm tall in white and red) were placed in two adjacent corners. The animal was then released against the center of the opposite wall with its back to the objects. This was done to prevent coercion to explore the objects. The animals were regarded to be exploring when they were facing, sniffing, or biting the object with nose and/or forepaws. Immediately after familiarization, the rats received intraperitoneal (i.p.) injections of vehicle or ligands and were returned to its home cage. After a waiting period of 3 h (|T|=3 h), the rat was placed in the box again and test trial was performed. […] The times spent in exploring each object during both trials were recorded manually by using a stopwatch. […] Discrimination index (DI) was used to measure object recognition and is calculated as the difference in time exploring the novel (TN) versus familiar object (TF), then dividing this value by the total time spent exploring the two objects in the test trial. […]

In data set [2] the target is T1, GIRK1/2(I-V) (UniProt P48542+P48549, I97V).
T1 construct: expressed in transfected cells; host or cells: Xenopus laevis oocytes (cRNA injection)
T1 sequence (P48549 1-501): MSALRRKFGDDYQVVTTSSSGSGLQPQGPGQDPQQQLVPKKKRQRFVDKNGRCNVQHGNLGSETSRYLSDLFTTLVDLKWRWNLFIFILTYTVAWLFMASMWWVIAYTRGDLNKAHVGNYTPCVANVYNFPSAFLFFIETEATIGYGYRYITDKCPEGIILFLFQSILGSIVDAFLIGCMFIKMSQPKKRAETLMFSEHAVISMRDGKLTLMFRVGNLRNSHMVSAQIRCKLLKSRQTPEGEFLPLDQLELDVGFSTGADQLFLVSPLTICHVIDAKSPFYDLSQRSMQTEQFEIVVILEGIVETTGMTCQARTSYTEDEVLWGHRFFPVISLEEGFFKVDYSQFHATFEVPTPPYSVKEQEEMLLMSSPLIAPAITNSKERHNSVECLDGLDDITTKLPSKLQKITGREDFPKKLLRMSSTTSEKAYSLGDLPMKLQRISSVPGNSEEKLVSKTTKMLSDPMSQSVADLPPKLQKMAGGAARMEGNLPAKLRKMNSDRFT
T1 sequence (P48542 1-425 I97V): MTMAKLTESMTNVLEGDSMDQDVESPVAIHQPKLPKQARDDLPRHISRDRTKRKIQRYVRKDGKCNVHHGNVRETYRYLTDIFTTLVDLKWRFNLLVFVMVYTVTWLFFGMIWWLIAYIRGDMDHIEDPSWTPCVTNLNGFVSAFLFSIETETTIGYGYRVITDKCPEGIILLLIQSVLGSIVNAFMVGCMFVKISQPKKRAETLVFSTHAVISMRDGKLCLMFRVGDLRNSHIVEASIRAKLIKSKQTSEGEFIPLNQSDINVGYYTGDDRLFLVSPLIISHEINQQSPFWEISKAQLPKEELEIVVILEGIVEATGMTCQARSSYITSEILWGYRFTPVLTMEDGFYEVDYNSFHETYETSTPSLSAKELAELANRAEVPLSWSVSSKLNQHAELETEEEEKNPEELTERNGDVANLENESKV
The data set is described as follows: TEVC in Xenopus oocytes, single mutant GIRK1/2(I-V). The conditions noted are these: GIRK1/2(I-V) single mutant. It is filed as cell-based, human GIRK1, mouse GIRK2. The source says: Molecular biology: For Xenopus oocyte expression, human GIRK1 and human GIRK4 cDNAs were subcloned into pGEMHE. For mammalian expression, human GIRK1 and human GIRK4 cDNAs were subcloned into pcDNA3 and pcDNA3.1/V5-His B, respectively (Invitrogen). Mouse GIRK2 cDNA was subcloned in the dual-function vector, pXoom. Point mutations were introduced using a standard Pfu-based mutagenesis technique according to the QuikChange protocol (Agilent). Mutations were verified by sequencing.
Electrophysiology of oocytes: Whole-oocyte currents were measured by conventional two-electrode voltage clamp (TEVC) with a GeneClamp 500 amplifier (Axon Instruments). Agarose cushion microelectrodes were filled with 1.5% (w/v) agarose in 3 M KCl and were used with resistances between 0.1 and 1.5 megaohms. […] Barium-sensitive basal currents from both groups, 1) Vehicle, 2) single concentration at 10 μM and 3) multiple concentrations of ML297 or GAT compounds in the presence of HK solution, were assessed at −80 mV using TEVC. Barium-sensitive currents were normalized to average basal current in the vehicle solutions. The HK solution contained the following: 96 mM KCl, 1 mM NaCl, 1 mM MgCl2, 5 mM KOH/HEPES, pH 7.4. The barium solution consisted of HK+10 mM BaCl2. Five to ten oocytes from the same batch (same frog) were recorded for each group, and the experiments were repeated in at least four batches. Data acquisition and analysis were carried out using pClamp9 (Molecular Devices) and OriginPro (Microcal) software.
To test these computational predictions, the inventors mutated each or both of the two M1 key wild-type GIRK4 subunit residues to the corresponding GIRK2 residues (GIRK4-V92I, GIRK4-T94V, GIRK4-V92I/T94V or GIRK4-dm) and vice-versa the GIRK2 residues to the corresponding GIRK4 ones (GIRK2-I97V, GIRK2-V99T, GIRK2-I97V/V99T or GIRK2-dm) (FIG. 35). […]

The term EC50 denotes the concentration needed to bring the measured effect to its halfway point. A lower EC50 goes with greater potency. For `Cc1cc(NC(=O)Nc2ccc(Br)s2)n(-c2ccccc2)n1` [GAT1508, 1-(5-bromothiophen-2-yl)-3-(3-methyl-1-phenyl-1H-pyrazol-5-yl)urea], the “discrimination index (in words)” value in data set [1] is recorded as “similar”. In data set [2], this compound came in with an EC50 of 500 ± 110 nM and an EMAX of 1.61±0.03. Further, in data set [2] (read-out: EMAX, % of the control GIRK1/2), the Emax turned out to be 42%.
